Results on four molecules are retold here after US11464759B2, “5-HT6 receptor antagonists for use in the treatment of alzheimer's disease in patient subpopulation carrying APOE4 alleles” (H. Lundbeck A/S, priority 2017, dated 2022).

Entries after “also recorded” stand apart in the source; their conditions may differ.

For test [1], the system named is APOE4/4 homozygote patients and APOE4 heterozygote patients with mild-moderate Alzheimer's disease. Briefly: Expected treatment response to other 5-HT6 receptor antagonists in APOE4 patients. The class given is in vivo, human. Particulars: APOE4/4 homozygote and APOE4 heterozygote patients with mild-moderate AD; surmised from idalopirdine.
Test [2] concerns the target h5-HT7 (Homo sapiens, UniProt P34969). Particulars: cited from earlier work.
Test [3] deals with h5-HT2B (Homo sapiens, UniProt P41595). Particulars: cited from earlier work.
Sequence of h5-HT2B (P41595 whole entry): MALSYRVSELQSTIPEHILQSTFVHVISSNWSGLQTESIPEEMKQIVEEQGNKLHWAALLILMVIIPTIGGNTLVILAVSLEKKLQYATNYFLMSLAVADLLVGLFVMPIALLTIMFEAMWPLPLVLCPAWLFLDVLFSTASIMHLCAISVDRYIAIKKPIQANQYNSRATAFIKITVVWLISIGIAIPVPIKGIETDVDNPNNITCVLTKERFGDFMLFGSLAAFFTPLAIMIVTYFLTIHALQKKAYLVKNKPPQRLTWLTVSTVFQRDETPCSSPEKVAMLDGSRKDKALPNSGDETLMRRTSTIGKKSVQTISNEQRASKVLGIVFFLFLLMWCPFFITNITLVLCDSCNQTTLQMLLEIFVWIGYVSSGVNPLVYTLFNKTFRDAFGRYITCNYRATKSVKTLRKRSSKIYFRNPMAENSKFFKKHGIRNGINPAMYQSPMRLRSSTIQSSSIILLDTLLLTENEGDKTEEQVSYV
For test [4], the system named is patients with mild-moderate AD. The test is described as follows: Phase III study 14861A, ADAS-cog by ApoE4 allele number. Particulars: 60 mg QD versus placebo, adjunct to donepezil.
Text: (§1) The primary endpoint was change from baseline to Week 24 in Alzheimer's disease Assessment Scale-cognitive subscale (ADAS-cog). This end-point addresses the primary objective of the study, which was to establish efficacy of idalopirdine as adjunctive therapy to donepezil for symptomatic treatment of patients with mild-moderate AD.
For test [5], the system named is patients with mild-moderate AD. The test is described as follows: Phase III study 14863A, MMSE by ApoE4 allele number. As to conditions: 60 mg QD versus placebo, adjunct to donepezil, rivastigmine, galantamine.
Experimental: (§2) Mini Mental State Examination (MMSE) is measured according to Folstein, M. F., Folstein, S. E. & McHugh, P. R. “Mini-mental state”: a practical method for grading the cognitive state of patients for the clinician.
(§3) Mine Mental State Examination (MMSE) was included as a secondary endpoint supportive of the primary objective.
(§4) In the tables below a negative effect value for ADAS-cog and NPI reflects a positive treatment effect, while for ADL and MMSE a positive effect value reflects a positive treatment effect:
Test [6] has as its system patients with mild-moderate Alzheimer's disease (MMSE 12-22). Briefly: Phase III program, idalopirdine as adjunctive treatment to acetylcholinesterase inhibitor, cognitive performance. In kind it is in vivo, human.
Test [7] deals with patients with mild-moderate AD. Briefly: Phase III study 14863A, NPI by ApoE4 allele number. As to conditions: 60 mg QD versus placebo, adjunct to donepezil, rivastigmine, galantamine.
Text: (§5) Neuropsychiatric Inventory (NPI) was included as an endpoint supportive of the secondary objective.
Test [8] relates to patients with mild-moderate AD. Briefly: Phase III studies 14861A and 14863A pooled, MMSE by ApoE4 allele number. As to conditions: 60 mg versus placebo, adjunct to AChEI.
Experimental: as §2, §3, §4
The test system of test [9] is patients with moderate AD (MMSE 12-19). As to conditions: LADDER study, 90 mg/day (30 mg TID) added to stable donepezil; cited from earlier work.
In test [10] the test system is patients with mild-moderate AD. Briefly: Phase III study 14861A, MMSE by ApoE4 allele number. As to conditions: 60 mg QD versus placebo, adjunct to donepezil.
Experimental: as §2, §3, §4
In test [11] the test system is patients with mild-moderate AD. Briefly: Phase III studies 14861A and 14863A pooled, ADAS-cog by ApoE4 allele number. As to conditions: 60 mg versus placebo, adjunct to AChEI.
Text: as §1
In test [12] the test system is patients with mild-moderate AD. Briefly: Phase III studies 14861A and 14863A pooled, NPI by ApoE4 allele number. As to conditions: 60 mg versus placebo, adjunct to AChEI.
Text: as §5
Test [13] deals with patients with mild-moderate AD. The test is described as follows: Phase III study 14863A, ADAS-cog by ApoE4 allele number. Particulars: 60 mg QD versus placebo, adjunct to donepezil, rivastigmine, galantamine.
Text: as §1
Test [14] concerns the target h5-HT1E (Homo sapiens, UniProt P28566). Particulars: cited from earlier work.
The test system of test [15] is patients with mild-moderate AD. The test is described as follows: Phase III studies 14861A and 14863A pooled, ADCS-ADL by ApoE4 allele number. As to conditions: 60 mg versus placebo, adjunct to AChEI.
Experimental: (§6) ADCS-ADL is measured according to Galasko et al. An inventory to assess activities of daily living for clinical trials in Alzheimer's disease.
(§7) The key secondary endpoints included a change from baseline to Week 24 in Alzheimer's disease Cooperative Study-Activities of Daily Living Inventory (ADCS-ADL) total score.
Test [16] deals with patients with mild-moderate AD. Briefly: Phase III study 14863A, ADCS-ADL by ApoE4 allele number. As to conditions: 60 mg QD versus placebo, adjunct to donepezil, rivastigmine, galantamine.
Experimental: as §6, §7
Test [17] has as its system patients with mild-moderate AD. Briefly: Phase III study 14861A, ADCS-ADL by ApoE4 allele number. As to conditions: 60 mg QD versus placebo, adjunct to donepezil.
Experimental: as §6, §7
The test system of test [18] is patients with mild-moderate AD. The test is described as follows: Phase III study 14861A, NPI by ApoE4 allele number. As to conditions: 60 mg QD versus placebo, adjunct to donepezil.
Text: as §5
In test [19] the target is h5-HT1B (Homo sapiens, UniProt P28222). Particulars: cited from earlier work.
Sequence of h5-HT1B (P28222 whole entry): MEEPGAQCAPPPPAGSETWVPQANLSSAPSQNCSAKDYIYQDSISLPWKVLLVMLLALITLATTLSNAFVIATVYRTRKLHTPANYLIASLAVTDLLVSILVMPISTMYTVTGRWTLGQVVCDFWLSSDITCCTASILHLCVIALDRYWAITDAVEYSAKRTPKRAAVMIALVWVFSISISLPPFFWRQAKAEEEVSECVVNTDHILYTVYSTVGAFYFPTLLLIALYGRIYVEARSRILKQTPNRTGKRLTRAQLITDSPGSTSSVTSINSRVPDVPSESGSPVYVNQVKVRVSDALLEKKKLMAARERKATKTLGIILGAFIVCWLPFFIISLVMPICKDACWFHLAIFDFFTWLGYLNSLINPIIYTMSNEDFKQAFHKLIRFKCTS
Test [20] concerns AD. Particulars: cited from earlier work.
[21] abbreviates: 0 ApoE4 alleles, negative = positive treatment effect.
The mark [22] stands for this setting: 1 ApoE4 allele, negative = positive treatment effect.
Where [23] appears, read: 2 ApoE4 alleles, negative = positive treatment effect.
The mark [24] stands for this setting: interaction 2 vs 0 ApoE4 alleles.
Setting [25] is: interaction (1 or 2) vs 0 ApoE4 alleles.
[26] abbreviates: 0 ApoE4 alleles, positive = positive treatment effect.
Where [27] appears, read: 1 ApoE4 allele, positive = positive treatment effect.
Setting [28] is: 2 ApoE4 alleles, positive = positive treatment effect.

Sequence of h5-HT7 (P34969 whole entry): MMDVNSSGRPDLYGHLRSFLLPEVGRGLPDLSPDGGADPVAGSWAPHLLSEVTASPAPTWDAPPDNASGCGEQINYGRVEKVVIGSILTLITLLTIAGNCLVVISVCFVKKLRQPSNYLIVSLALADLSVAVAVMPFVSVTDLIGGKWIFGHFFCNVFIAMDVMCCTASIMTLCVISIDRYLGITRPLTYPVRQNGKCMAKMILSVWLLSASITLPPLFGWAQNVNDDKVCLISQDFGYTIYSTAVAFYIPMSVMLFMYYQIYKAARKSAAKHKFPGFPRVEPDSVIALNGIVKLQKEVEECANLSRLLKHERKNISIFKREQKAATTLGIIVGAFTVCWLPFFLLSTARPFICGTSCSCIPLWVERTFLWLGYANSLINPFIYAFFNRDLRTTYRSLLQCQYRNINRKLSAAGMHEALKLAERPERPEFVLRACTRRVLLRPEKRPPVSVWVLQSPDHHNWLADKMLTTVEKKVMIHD
Sequence of h5-HT1E (P28566 whole entry): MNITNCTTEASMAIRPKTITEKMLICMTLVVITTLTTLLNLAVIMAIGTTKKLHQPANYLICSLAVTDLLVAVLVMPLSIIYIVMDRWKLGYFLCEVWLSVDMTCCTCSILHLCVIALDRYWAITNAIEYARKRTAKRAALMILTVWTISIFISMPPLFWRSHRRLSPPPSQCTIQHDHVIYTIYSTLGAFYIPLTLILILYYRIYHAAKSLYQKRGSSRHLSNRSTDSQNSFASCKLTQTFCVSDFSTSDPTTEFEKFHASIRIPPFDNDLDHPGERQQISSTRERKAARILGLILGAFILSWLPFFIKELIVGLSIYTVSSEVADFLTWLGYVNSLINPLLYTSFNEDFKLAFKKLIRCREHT

On to `CSc1nn2c(C)cc(C)nc2c1S(=O)(=O)c1ccccc1` [AVN-211, 3-Benzenesulfonyl-5,7-dimethyl-2-methylsulfanyl-pyrazolo[1,5-a]pyrimidine], for which the “treatment response in Alzheimer's disease” value in test [1] is given as “enhanced treatment response”.
In the case of `O=S(=O)(c1ccccc1)c1cnc2c(N3CCNCC3)cccc2c1` [RVT-101, 3-phenylsulfonyl-8-piperazin-1-yl-quinoline], the “treatment response in Alzheimer's disease” value in test [1] was “enhanced treatment response”.
`Fc1ccc2c(CCNCc3cccc(OCC(F)(F)C(F)F)c3)c[nH]c2c1` [idalopirdine, N-(2-(6-fluoro-1H-indol-3-yl)-ethyl)-3-(2,2,3,3-tetrafluoropropoxy)-benzylamine]: the Ki in test [2] is more than 10 µM; in [3] it was more than 4.1 µM; in test [14], more than 4.6 µM; in [19], more than 10 µM. Further, the “Change in ADAS-cog at week 24, effect of 60 mg IDL” value (“Change in ADAS-cog” below) in test [4] (setting [21]) is reported as 1.14; in [4] (setting [22]), −0.67; in test [4] (setting [23]), −1.87; in test [4] (setting [24]) it was −3.02; in test [4] (setting [25]), −2.42; in [11] (setting [21]) it was 0.02. Further, the “Change in ADAS-cog” value in test [11] (setting [22]) is given as −0.41; in test [11] (setting [23]), −2.11; in test [11] (setting [24]), −2.13; in test [11] (setting [25]), −1.28; in test [13] (setting [21]), −0.75; in test [13] (setting [22]) it was −0.18. Also, the results for the “Change in ADAS-cog” value in [13] (setting [23]), in test [13] (setting [24]) and in [13] (setting [25]) were −2.23, −1.48 and −0.46, respectively. The “Change in MMSE at week 24, effect of 60 mg IDL” value (from here on “Change in MMSE”) in test [5] (setting [26]) is 0.16; in test [5] (setting [27]), 0.42; in test [5] (setting [28]), 0.96; in [5] (setting [24]) it was 0.80; in test [5] (setting [25]), 0.53; in test [8] (setting [26]), −0.20. The “Change in MMSE” value in [8] (setting [27]) is given as 0.53; in [8] (setting [28]), 1.00; in test [8] (setting [24]) it was 1.20; in [8] (setting [25]) it was 0.96; in test [10] (setting [26]) it was −0.68; in test [10] (setting [27]), 0.64. In addition, the entries for the “Change in MMSE” value in [10] (setting [28]), in test [10] (setting [24]) and in test [10] (setting [25]) were 1.11, 1.79 and 1.56, respectively. The “cognitive performance relative to donepezil monotherapy” value is given as “a significant improvement” in test [6] (adjunctive to donepezil, APOE4 homozygote and APOE4 heterozygote patients with mild-moderate AD (MMSE 12-22)); “did not replicate the phase II efficacy results; also recorded: no significant improvement” in test [6] (phase III, 10, 30, and 60 mg QD adjunctive to AChEI, all patients with mild-moderate AD (MMSE 12-22)); “significant improvement” in test [9]. The “Change in NPI at week 24, effect of 60 mg IDL” value (shortened to “Change in NPI”) was −0.09 in [7] (setting [21]); 0.34 in [7] (setting [22]); −2.06 in [7] (setting [23]); −1.97 in test [7] (setting [24]); −0.77 in test [7] (setting [25]); 0.35 in [12] (setting [21]). The “Change in NPI” value in test [12] (setting [22]) is recorded as −0.04; in test [12] (setting [23]) it was −3.06; in test [12] (setting [24]), −3.41; in test [12] (setting [25]), −1.90; in test [18] (setting [21]), 0.96; in [18] (setting [22]), −0.43. Also, the “Change in NPI” value in test [18] (setting [23]) is on record as −4.52; in [18] (setting [24]) it was −5.48; in test [18] (setting [25]) it was −3.44. For the same molecule, the “Change in ADCS-ADL at week 24, effect of 60 mg IDL” value (shortened to “Change in ADCS-ADL”) in [15] (setting [26]) was −0.21; in test [15] (setting [27]), 0.77; in test [15] (setting [28]), 1.88; in [15] (setting [24]) it was 2.09; in test [15] (setting [25]), 1.53; in test [16] (setting [26]), 0.50. Further, the “Change in ADCS-ADL” value in test [16] (setting [27]) is on record as 0.83; in test [16] (setting [28]), 1.86; in [16] (setting [24]), 1.37; in test [16] (setting [25]) it was 0.85; in test [17] (setting [26]), −1.29; in test [17] (setting [27]), 0.75. Further, the “Change in ADCS-ADL” value in test [17] (setting [28]) came out at 2.06; in [17] (setting [24]), 3.35; in test [17] (setting [25]), 2.69.
Turning to `NCCCS(=O)(=O)O` [tramiprosate], the “primary endpoint of phase III program” value in [20] (all patients) is recorded as “not to meet its primary endpoint”. In addition, in [20] (apolipoprotein E4 carriers), the prespecified subgroup analysis result is recorded as “potential efficacy”.
